Key:
[1] = target: HEK-293 cells expressing human recombinant adenosine A1 receptor (Homo sapiens (Human), UniProt P30542); experiment: cAMP assay (Assay 2), A1 receptor; type: cell-based
Procedure: (§1) The functional activity of compounds was tested using Assay 2, below, to detect the presence of cAMP. Assay 1 is an alternative assay for this purpose. Activation of G-protein coupled receptors (such as A2A) results in activation of adenylyl cyclase which converts ATP into cAMP which is used as a downstream signaling molecule. Therefore, molecules which act as GPCR (or specifically A2A receptor) antagonists cause a decrease in intracellular cAMP concentration.
(§2) Assay 2 (Table B2): This assay used HEK-293 cells expressing human recombinant adenosine A2A receptor (or, alternatively, A1 receptor) that were grown prior to the test in media without antibiotic. 100 nL of test articles at 100x of final concentration were transferred to assay plate by Echo. Cells were washed twice with 5 mL of PBS and 10 μL of cells were mixed with 5 mL PBS. After aspirating the PBS and adding 1.5 mL versine, cells were incubated at 37° C. for 2-5 min. After centrifugation, 4 mL of medium was added and adjusted cell density to 5,000 cells/well with Stimulation Buffer. 10 μL of cells were aliquoted to the assay plate, centrifuged at 1000 rpm for 1 minute, and incubated for 60 minutes at room temperature. 5 μL 4× Eu-cAMP tracer solution and 5 μL 4× Ulight™-anti-cAMP solution were added to assay plate, followed by centrifugation and 60-minute incubation at room temperature. Plates were read on EnVision.

[2] = target: adenosine A2a (human) membrane (Homo sapiens (Human), UniProt P29274); experiment: A2A adenosine receptor radioligand binding assay ([3H] CGS-21680); conditions: radioligand [3H] CGS-21680 6 nM
Sequence of adenosine A2a (human) membrane (P29274 whole entry): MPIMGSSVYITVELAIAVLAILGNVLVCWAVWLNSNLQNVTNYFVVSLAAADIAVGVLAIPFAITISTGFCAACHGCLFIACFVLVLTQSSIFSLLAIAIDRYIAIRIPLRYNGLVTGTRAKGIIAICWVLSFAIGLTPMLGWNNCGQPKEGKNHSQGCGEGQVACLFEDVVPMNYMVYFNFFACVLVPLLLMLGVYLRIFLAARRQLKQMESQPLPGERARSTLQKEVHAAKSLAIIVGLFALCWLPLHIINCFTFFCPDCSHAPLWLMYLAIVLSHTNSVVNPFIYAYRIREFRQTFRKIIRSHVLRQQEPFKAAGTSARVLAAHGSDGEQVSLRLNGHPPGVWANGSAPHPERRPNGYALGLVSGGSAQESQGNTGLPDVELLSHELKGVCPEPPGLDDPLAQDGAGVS
Procedure: A second A2A adenosine receptor radioligand binding assay protocol was used. The protocol used adenosine A2a (human) membrane (PerkinElmer RBHA2AM400UA) at a concentration of 5 μg/well/100 μl and the radioligand [3H] CGS-21680 (Cat No. PerkinElmer-NET1021250UC) at a final concentration of 6 nM. Testing compounds were diluted with DMSO to make 8-point 4-fold serial dilution, starting at 0.2 mM. CGS-15943 was the reference compound. 1 μl of compounds/high control/low control was transferred to the assay plate according to a plate map, followed by 100 μl of membrane stocks and 100 μl of radioligand, in assay buffer (50 mM Tris-HCl, 10 mM MgCl2, 1 mM EDTA, pH 7.4). The plate was sealed and incubated at RT for 2 hours. Unifilter-96 GF/C filter plates (Perkin Elmer Cat #6005174) were soaked with 50 μl of 0.3% PEI per well for at least 0.5 hour at room temperature. When the binding assays were completed, the reaction mixtures were filtered through GF/C plates using Perkin Elmer Filtermate Harvester, and each plate washed 4 times with cold wash buffer (50 mM Tris-HCl, 154 mM NaCl, pH 7.4). The filter plates were dried for 1 hour at 50 degrees. After drying, the bottom of the filter plate wells was sealed, 50 μl of Perkin Elmer Microscint 20 cocktail was added, and the top of the filter plate was sealed. ^3H trapped on the filter was counted using Perkin Elmer MicroBeta2 Reader. The data were analyzed with GraphPad Prism 5 to obtain binding IC50 values. The “Inhibition [% Control]” was calculated using the equation: % Inh=(1-Background subtracted Assay value/Background subtracted HC value)*100, where HC is high control.

[3] = target: HEK-293 cells expressing human recombinant adenosine A2A receptor (Homo sapiens (Human), UniProt P29274); experiment: cAMP assay (Assay 2), A2A receptor; type: cell-based
Sequence of HEK-293 cells expressing human recombinant adenosine A2A receptor (P29274 whole entry): as above
Procedure: as §1, §2

[4] = target: adenosine A1 (human) membrane (Homo sapiens (Human), UniProt P30542); experiment: A1 adenosine receptor radioligand binding assay ([3H] DPCPX); conditions: 200 nM compound; radioligand [3H] DPCPX 1 nM
Sequence of adenosine A1 (human) membrane (P30542 whole entry): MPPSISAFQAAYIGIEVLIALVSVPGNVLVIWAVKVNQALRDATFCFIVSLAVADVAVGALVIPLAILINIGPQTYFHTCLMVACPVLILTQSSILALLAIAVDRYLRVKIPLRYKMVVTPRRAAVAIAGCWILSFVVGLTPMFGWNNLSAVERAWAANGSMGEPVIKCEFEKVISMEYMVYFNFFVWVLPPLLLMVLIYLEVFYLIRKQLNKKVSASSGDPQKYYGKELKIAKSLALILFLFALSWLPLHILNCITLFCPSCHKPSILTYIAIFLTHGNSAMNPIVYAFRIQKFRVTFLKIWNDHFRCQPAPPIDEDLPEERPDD
Procedure: A second A1 adenosine receptor radioligand binding assay protocol was used. The protocol used adenosine A1 (human) membrane (PerkinElmer ES-010-M400UA) at a concentration of 2.5 μg/well/100 μl and the radioligand [3H] DPCPX (Cat No. PerkinElmer-NET974250UC) at a final concentration of 1 nM. Testing compounds were tested at a final concentration of 200 nM. CGS-15943, the reference compound, was tested in an 8-point 4-fold serial dilution, starting at a top concentration of 1 μM. 1 μl of compounds/high control/low control was transferred to the assay plate according to a plate map, followed by 100 μl of membrane stocks and 100 μl of radioligand, in assay buffer (25 mM HEPES, 5 mM MgCl2, 1 mM CaCl2, 100 mM NaCl, pH 7.4). The plate was sealed and incubated at RT for 1 hour. Unifilter-96 GF/C filter plates (Perkin Elmer Cat #6005174) were soaked with 50 μl of 0.3% PEI per well for at least 0.5 hour at room temperature. When the binding assays were completed, the reaction mixtures were filtered through GF/C plates using Perkin Elmer Filtermate Harvester, and each plate washed 4 times with cold wash buffer (25 mM HEPES, 5 mM MgCl2, 1 mM CaCl2, 100 mM NaCl, pH 7.4). The filter plates were dried for 1 hour at 50 degrees. After drying, the bottom of the filter plate wells was sealed, 50 μl of Perkin Elmer Microscint 20 cocktail was added, and the top of the filter plate was sealed. ^3H trapped on the filter was counted using Perkin Elmer MicroBeta2 Reader. The data were analyzed with GraphPad Prism 5 to obtain binding IC50 values for the reference compound. The “Inhibition [% Control]” was calculated using the equation: % Inh=(1-Background subtracted Assay value/Background subtracted HC value)*100, where HC is high control.

Sequence of HEK-293 cells expressing human recombinant adenosine A1 receptor (P30542 whole entry): as above

Structure (SMILES)	IC50 [1] [nM]	IC50 [2] [nM]	IC50 [3] [nM]	inhibition at 0.2 µM [4] [%]
C[C@@H](NC(=O)c1nc(-c2cc(Cl)c3[nH]ncc3c2)c(-c2ccc(F)cc2)nc1N)c1ccccn1 [Compound No. 104, (R)-3-amino-6-(7-chloro-1H-indazol-5-yl)-5-(4-fluorophenyl)-N-(1-(pyridin-2-yl)ethyl)pyrazine-2-carboxamide]	117	0.9	76	68
N#Cc1cccc(-c2nc(N)cnc2-c2cc(Cl)c3ncccc3c2)c1 [Compound No. 2-6, 3-(6-amino-3-(8-chloroquinolin-6-yl)pyrazin-2-yl)benzonitrile]	5	3.7	44	90
CC(NC(=O)c1nc(-c2cc(Cl)c3ncccc3c2)c(-c2ccc(F)cc2)nc1N)c1cccc(C#N)n1 (stereo not shown) [Compound No. 102, 3-amino-6-(8-chloroquinolin-6-yl)-N-(1-(6-cyanopyridin-2-yl)ethyl)-5-(4-fluorophenyl)pyrazine-2-carboxamide]	24	1.9	143	93
N#Cc1cccc(CNC(=O)c2nc(-c3cc(Cl)c4ncccc4c3)c(-c3ccc(F)cc3)nc2N)n1 [Compound No. 105, 3-amino-6-(8-chloroquinolin-6-yl)-N-((6-cyanopyridin-2-yl)methyl)-5-(4-fluorophenyl)pyrazine-2-carboxamide]	10	1.2	48	94
C[C@@H](NC(=O)c1nc(-c2ccc3ncccc3c2)c(-c2ccccc2)nc1N)c1ncccn1 [Compound No. 125, (R)-3-amino-5-phenyl-N-(1-(pyrimidin-2-yl)ethyl)-6-(quinolin-6-yl)pyrazine-2-carboxamide]	–	1.2	27	–
CC(C)(NC(=O)c1nc(-c2ccc3ncccc3c2)c(-c2ccccc2)nc1N)c1ccccn1 [compound 108, 3-amino-5-phenyl-N-(2-(pyridin-2-yl)propan-2-yl)-6-(quinolin-6-yl)pyrazine-2-carboxamide]	326	1.3	55	47
Cc1c(C#N)cccc1-c1nc(N)cnc1-c1cc(Cl)c2ncccc2c1 [2-2, 3-(6-amino-3-(8-chloroquinolin-6-yl)pyrazin-2-yl)-2-methylbenzonitrile]	–	–	327	30
N#Cc1cccc(CNC(=O)c2nc(-c3ccc4ncccc4c3)c(-c3ccccc3)nc2N)n1 [compound 98, 3-amino-N-((6-cyanopyridin-2-yl)methyl)-5-phenyl-6-(quinolin-6-yl)pyrazine-2-carboxamide]	11	0.8	18	92
Nc1nc(-c2ccccc2)c(-c2ccc3ncccc3c2)nc1C(=O)NCCC1CCOCC1 [compound 89, 3-amino-5-phenyl-6-(quinolin-6-yl)-N-(2-(tetrahydro-2H-pyran-4-yl)ethyl)pyrazine-2-carboxamide]	–	16	58	–
CCN(CC)CCNC(=O)c1nc(-c2ccc3ncccc3c2)c(-c2ccccc2)nc1N [compound 107, 3-amino-N-(2-(diethylamino)ethyl)-5-phenyl-6-(quinolin-6-yl)pyrazine-2-carboxamide]	–	–	191	49
Nc1nc(-c2ccc(F)cc2)c(-c2cc(Cl)c3ncccc3c2)nc1C(=O)NCCC1CCOCC1 [Compound No. 101, 3-amino-6-(8-chloroquinolin-6-yl)-5-(4-fluorophenyl)-N-(2-(tetrahydro-2H-pyran-4-yl)ethyl)pyrazine-2-carboxamide]	–	–	238	66
N#Cc1cccc(-c2nc(N)cnc2-c2cc(Cl)c3ncccc3c2)c1F [2-10, 3-(6-amino-3-(8-chloroquinolin-6-yl)pyrazin-2-yl)-2-fluorobenzonitrile]	27	3.1	39	79
C[C@@H](NC(=O)c1nc(-c2ccc3ncccc3c2)c(-c2ccn(C)n2)nc1N)c1ccccn1 [Compound No. 110, (R)-3-amino-5-(1-methyl-1H-pyrazol-3-yl)-N-(1-(pyridin-2-yl)ethyl)-6-(quinolin-6-yl)pyrazine-2-carboxamide]	–	2.9	75	38
C[C@H](NC(=O)c1nc(-c2cc(Cl)c3ncccc3c2)c(-c2ccccc2)nc1N)c1cccc(C#N)n1 [Compound No. 122, (S)-3-amino-6-(8-chloroquinolin-6-yl)-N-(1-(6-cyanopyridin-2-yl)ethyl)-5-phenylpyrazine-2-carboxamide]	–	< 0.6	33	96
C[C@H](NC(=O)c1nc(-c2ccc3ncccc3c2)c(-c2ccccc2)nc1N)c1ccccn1 [compound 75, (S)-3-amino-5-phenyl-N-(1-(pyridin-2-yl)ethyl)-6-(quinolin-6-yl)pyrazine-2-carboxamide]	219	2.5	25	63
C[C@@H](NC(=O)c1nc(-c2cc(Cl)c3ncccc3c2)c(-c2ccn(C)n2)nc1N)c1ccccn1 [Compound No. 100, (R)-3-amino-6-(8-chloroquinolin-6-yl)-5-(1-methyl-1H-pyrazol-3-yl)-N-(1-(pyridin-2-yl)ethyl)pyrazine-2-carboxamide]	22	1.6	28	70
C[C@H](NC(=O)c1nc(-c2ccc3ncccc3c2)c(-c2ccccc2)nc1N)c1ncccn1 [Compound No. 126, (S)-3-amino-5-phenyl-N-(1-(pyrimidin-2-yl)ethyl)-6-(quinolin-6-yl)pyrazine-2-carboxamide]	–	1.8	110	41
CC(NC(=O)c1nc(-c2ccc3ncccc3c2)c(-c2ccccc2)nc1N)c1ccccn1 (stereo not shown) [compound 73, 3-amino-5-phenyl-N-(1-(pyridin-2-yl)ethyl)-6-(quinolin-6-yl)pyrazine-2-carboxamide]	403	3.1	53	61
C[C@@H](NC(=O)c1nc(-c2cc(Cl)c3ncccc3c2)c(-c2ccc(F)cc2)nc1N)c1ccccn1 [compound 106, (R)-3-amino-6-(8-chloroquinolin-6-yl)-5-(4-fluorophenyl)-N-(1-(pyridin-2-yl)ethyl)pyrazine-2-carboxamide]	–	–	165	34

— patent US11306071B2, “Heterocyclic compounds as adenosine antagonists” (Nuvation Bio Inc., priority 2019, dated 2022)
